# Reference: patent US20020166132A1, “System for regulating in vivo the expression of a transgene by conditional inhibition” (priority 2000, published 2002)
# What was measured:
# [1] = system: SeAP reporter gene; test: Circulating SeAP after intramuscular injection and electrotransfer of plasmids into tibialis cranialis muscle of SCID mice; format: in vivo
# Method: The 6-week-old SCID mice were first anesthetized with a Ketamine/Xylazine mixture (250 μl/mouse). The various plasmids in solution in 150 mM NaCl were then injected intramuscularly into the tibialis cranialis muscle of the mice. […] The amount of circulating SeAP was regularly monitored by taking blood samples and assaying the phosphatase activity using the Phospha-Light kit (Tropix).
# [2] = system: SeAP reporter gene (plasmid pRDA02); test: SeAP expression in C2C12 cells, hPPARγ2 inducible system; format: cell-based, murine; conditions: ratios of columns 3 and 4; 5 and 6; 7 and 8, FIG. 24; BRL49653 at 10^-7 M final
# Method: FIG. 24: Measurement of the expression of SeAP 5 days after transfection in C2C12 cells with the following plasmids, with and without the chemical inducer BRL49653 at 10^-7 M final:
# The cells used were NIHT3T3 murine fibroblasts (ATCC: CRL-1658). These cells were seeded 24 h before transfection, in 6- or 24-well plates, at a density of 5×10^4 cells/well in 1 ml of medium, or of 2.5×10^5 cells/well in 2 ml. The culture medium used was DMEM™ medium (Life Technologies Inc.) supplemented with 10% of calf serum. The cell cultures were incubated in an incubator at 37° C. in a humid atmosphere and under a partial CO2 pressure of 5%. The transfections were carried out approximately 24 h after seeding, when 50 to 80% confluence was obtained. C2C12 cells were murine myoblast cells (ATCC: CRL1772) and were cultured on a DMEM™ medium (Life Technologies Inc.) supplemented with 10% of fetal calf serum to which L-glutamine, 2 mM final, and antibiotics, 50 units final of penicillin and 50 μg/ml of streptomycin, were added.
structure (smiles),measurement,setting,value
CN1CCN(c2ccc3[nH]c(-c4ccc5[nH]c(-c6ccc(O)cc6)nc5c4)nc3c2)CC1,SeAP activity with aptamer ligand,"[1]; pXL3010+pSeAPaptazyme, 400 mg/l via the drinking water, Example 14",restored to a significant level
"CN(CCOc1ccc(CC2SC(=O)NC2=O)cc1)c1ccccn1 (stereo not drawn) [BRL fibrate, rosiglitazone]",inducibility of the expression of SeAP in the presence of the antisense transcript,[2],a certain inducibility
NC[C@@H]1O[C@H](O[C@H]2[C@@H](O)[C@H](O[C@@H]3[C@@H](O)[C@H](N)C[C@H](N)[C@H]3O[C@H]3O[C@H](CN)[C@@H](O)[C@H](O)[C@H]3N)O[C@@H]2CO)[C@H](N)[C@@H](O)[C@@H]1O [neomycin B],expression of SeAP with aptamer ligand,"[1]; pXL3010+pSeAPaptamerAS, IP injection approximately 500 μg/mouse, Example 13",can be restored
